According to patent publication US20080275086A1, “Dpp-Iv Inhibitors” (priority 2005, published 2008):
Structures can show the parent of a compound that is named as a salt. Where two headings read alike, the source gives them in different places.

Target: T1, DPP-IV (Homo sapiens, UniProt P27487)
T1 construct: Soluble human DPP-IV lacking the transmembrane anchor (Gly31-Pro766); Pre-Pro-alpha-mating factor leader (secretion fusion) (N, cleaved yes); made in house
Experiment: Continuous fluorimetric assay of inhibition of DPP-IV peptidase activity (Gly-Pro-AMC cleavage)
Type: biochemical
Description: Inhibition of DPP-IV peptidase activity was monitored with a continuous fluorimetric assay. This assay is based on the cleavage of the substrate Gly-Pro-AMC (Bachem) by DPP-IV, releasing free AMC. The assay is carried out in 96-well microtiterplates. In a total volume of 100 μL, compounds are preincubated with 50 pM DPP-IV employing a buffer containing 10 mM Hepes, 150 mM NaCl, 0.005% Tween 20 (pH 7.4). The reaction is started by the addition of 16 μM substrate and the fluorescence of liberated AMC is detected for 10 minutes at 25° C. with a fluorescence reader (BMG-Fluostar; BMG-Technologies) using an excitation wavelength of 370 nm and an emission wavelength of 450 nm. The final concentration of DMSO is 1%. The inhibitory potential of the compounds were determined.
Soluble human DPP-IV lacking the transmembrane anchor (Gly31-Pro766) was expressed in a recombinant YEAST-strain as Pre-Pro-alpha-mating fusion. The secreted product (rhuDPP-IV-Gly31-Pro766) was purified from fermentation broth (>90% purity) and used for inhouse screening.

[1] = 50 pM DPP-IV, 16 μM Gly-Pro-AMC, pH 7.4, 25° C., values grouped in 2 classes, read-out: IC50 for inhibition of DPP-IV peptidase activity

T1 sequence (P27487 31-766): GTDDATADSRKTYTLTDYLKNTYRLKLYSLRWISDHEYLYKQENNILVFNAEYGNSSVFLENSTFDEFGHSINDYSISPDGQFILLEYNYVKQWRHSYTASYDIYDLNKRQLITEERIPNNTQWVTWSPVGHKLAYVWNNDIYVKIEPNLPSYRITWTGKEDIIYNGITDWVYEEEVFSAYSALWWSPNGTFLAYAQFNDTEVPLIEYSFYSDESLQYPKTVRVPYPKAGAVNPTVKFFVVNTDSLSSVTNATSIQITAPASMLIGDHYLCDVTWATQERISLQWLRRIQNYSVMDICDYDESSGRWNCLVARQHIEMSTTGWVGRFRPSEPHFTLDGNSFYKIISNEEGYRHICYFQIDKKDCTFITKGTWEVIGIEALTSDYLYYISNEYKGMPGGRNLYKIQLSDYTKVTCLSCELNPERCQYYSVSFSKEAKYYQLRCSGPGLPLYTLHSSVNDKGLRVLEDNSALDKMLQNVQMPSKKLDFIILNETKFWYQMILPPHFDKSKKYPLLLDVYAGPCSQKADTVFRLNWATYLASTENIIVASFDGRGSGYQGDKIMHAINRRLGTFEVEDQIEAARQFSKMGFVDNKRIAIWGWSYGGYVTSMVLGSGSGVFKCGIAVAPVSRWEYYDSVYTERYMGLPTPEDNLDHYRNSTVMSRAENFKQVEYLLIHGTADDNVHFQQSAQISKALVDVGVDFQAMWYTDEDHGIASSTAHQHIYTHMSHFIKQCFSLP

N[C@@H](CC(=O)N1CCCC(Cc2ccccc2Cl)C1)Cc1ccccc1F (some centres unmarked) [Example 33]
IC50 [1]: 0.501 to 2 µM

N[C@@H](CC(=O)N1CCCC(F)C1)Cc1ccccc1F (some centres unmarked) [Example 43]
IC50 [1]: 0.501 to 2 µM

N[C@@H](CC(=O)N1CCC(c2nc(-c3cnccn3)no2)CC1)Cc1ccccc1F [Example 26]
IC50 [1]: < 0.5 µM

N[C@@H](CC(=O)N1CCC(O)CC1)Cc1ccccc1F [Example 10]
IC50 [1]: 0.501 to 2 µM

N[C@@H](CC(=O)N1CC[C@@H](NC(=O)C2CC2)C1)Cc1ccccc1F [Example 54, N-((R)-1-((R)-3-amino-4-(2-fluorophenyl)butanoyl)pyrrolidin-3-yl)cyclopropane-carboxamide trifluoroacetic acid salt]
IC50 [1]: < 0.5 µM

N[C@H](Cc1ccccc1F)CS(=O)(=O)N1CCC[C@H]1CNS(=O)(=O)c1ccccc1 [Example 56, N-{(S)-1-[(R)-2-Amino-3-(2-fluoro-phenyl)-propane-1-sulphonyl]-pyrrolidin-2-ylmethyl}-benzenesulfonamide]
IC50 [1]: < 0.5 µM

N[C@@H](CC(=O)N1CCC(n2nnc3ccccc32)CC1)Cc1ccccc1F [Example 19]
IC50 [1]: < 0.5 µM

CS(=O)(=O)c1ccc(-c2noc(C3CCN(C(=O)C[C@H](N)Cc4ccccc4F)CC3)n2)cc1 [Example 22]
IC50 [1]: < 0.5 µM

N[C@@H](CC(=O)N1CC(C(=O)Nc2ccccn2)C1)Cc1ccccc1F [Example 50]
IC50 [1]: 0.501 to 2 µM

N[C@@H](CC(=O)N1CCC(C(=O)NCCO)CC1)Cc1ccccc1F [Example 24]
IC50 [1]: 0.501 to 2 µM

N[C@@H](CC(=O)N1CCCC1Cc1cccc(Cl)c1)Cc1ccccc1F (some centres unmarked) [Example 16]
IC50 [1]: < 0.5 µM

N[C@@H](CC(=O)N1CCC(c2nc(-c3ccncc3)no2)CC1)Cc1ccccc1F [Example 15]
IC50 [1]: < 0.5 µM

N[C@@H](CC(=O)N1CCC(c2cccc(Cl)c2)CC1)Cc1ccccc1F [Example 42]
IC50 [1]: 0.501 to 2 µM

N[C@@H](CC(=O)N1CCC(Oc2ccccc2)CC1)Cc1ccccc1F [Example 20]
IC50 [1]: < 0.5 µM

N[C@@H](CC(=O)N1CCCC1Cc1ccccc1)Cc1ccccc1F (mixture of isomers) [Example 12]
IC50 [1]: < 0.5 µM

N[C@@H](CC(=O)N1CC[C@@H](NC(=O)c2ccccc2)C1)Cc1ccccc1F [Example 55, N-((R)-1-((R)-3-amino-4-(2-fluorophenyl)butanoyl)pyrrolidin-3-yl)benzamide trifluoroacetic acid salt]
IC50 [1]: < 0.5 µM

N[C@@H](CC(=O)N1CCC(c2cccc(F)c2)CC1)Cc1ccccc1F [Example 37]
IC50 [1]: 0.501 to 2 µM

N[C@@H](CC(=O)N1CCC[C@@H]1Cc1ccccc1)Cc1ccccc1F (single isomer, unassigned) [Example 48]
IC50 [1]: < 0.5 µM

N[C@@H](CC(=O)N1CCC(F)CC1)Cc1ccccc1F [Example 44]
IC50 [1]: 0.501 to 2 µM

N[C@@H](CC(=O)N1CCC(CO)CC1)Cc1ccccc1F [Example 2]
IC50 [1]: 0.501 to 2 µM

N[C@@H](CC(=O)N1CCCC(C(F)(F)F)C1)Cc1ccccc1F (some centres unmarked) [Example 46]
IC50 [1]: 0.501 to 2 µM

CCN(CC)C(=O)C1CCCN(C(=O)C[C@H](N)Cc2ccccc2F)C1 (some centres unmarked) [Example 11]
IC50 [1]: 0.501 to 2 µM

N[C@@H](CC(=O)N1CCC(c2nc(-c3cccc(C(F)(F)F)c3)no2)CC1)Cc1ccccc1F [Example 40]
IC50 [1]: 0.501 to 2 µM

N[C@@H](CC(=O)N1CC(C(=O)NCc2ccccc2)C1)Cc1ccccc1F [Example 49, 1-[3-(R)-amino-4-(2-fluoro-phenyl)-butyryl]-azetidine-3-carboxylic acid benzylamide]
IC50 [1]: 0.501 to 2 µM

N[C@@H](CC(=O)N1CCC(C(F)(F)F)CC1)Cc1ccccc1F [Example 27]
IC50 [1]: < 0.5 µM

N[C@@H](CC(=O)N1CC(N2CCN(c3ccccn3)CC2)C1)Cc1ccccc1F [Example 51, (3R)-3-amino-4-(2-fluoro-phenyl)-1-[3-(4-pyridin-2-yl-piperazin-1-yl)-azetidin-1-yl]-butan-1-one trifluoroacetic acid]
IC50 [1]: 0.501 to 2 µM

N[C@@H](CC(=O)N1CCC(c2nnc(-c3ccccc3)o2)CC1)Cc1ccccc1F [Example 21]
IC50 [1]: < 0.5 µM

N[C@@H](CC(=O)N1CCC(c2nc(-c3cccnc3)no2)CC1)Cc1ccccc1F [Example 23]
IC50 [1]: < 0.5 µM

N[C@@H](CC(=O)N1CCC(N2C(=O)Cc3ccccc32)CC1)Cc1ccccc1F [Example 45]
IC50: < 0.5 µM

N[C@@H](CC(=O)N1CCC(n2c(=O)[nH]c3ccccc32)CC1)Cc1ccccc1F [Example 6]
IC50 [1]: < 0.5 µM

N[C@@H](CC(=O)N1CCCC1Cc1ccccn1)Cc1ccccc1F (some centres unmarked) [Example 18]
IC50 [1]: < 0.5 µM

N[C@@H](CC(=O)N1CCC(N2CCCCC2=O)CC1)Cc1ccccc1F [Example 8]
IC50 [1]: 0.501 to 2 µM

N[C@@H](CC(=O)N1CCC(n2c(=O)[nH]c3cc(Cl)ccc32)CC1)Cc1ccccc1F [Example 14]
IC50 [1]: < 0.5 µM

N[C@@H](CC(=O)N1CC[C@H](NC(=O)c2ccccc2)C1)Cc1ccccc1F [Example 53, N-((S)-1-((R)-3-amino-4-(2-fluorophenyl)butanoyl)pyrrolidin-3-yl)benzamide trifluoroacetic acid salt]
IC50 [1]: < 0.5 µM

N[C@@H](CC(=O)N1CCCC(F)(F)C1)Cc1ccccc1F [Example 30]
IC50 [1]: 0.501 to 2 µM

N[C@@H](CC(=O)N1CCCC1Cc1ccc(Cl)cc1)Cc1ccccc1F (some centres unmarked) [Example 17]
IC50 [1]: < 0.5 µM

N[C@@H](CC(=O)N1CCC[C@H]1Cc1ccccc1)Cc1ccccc1F (single isomer, unassigned) [Example 47]
IC50 [1]: < 0.5 µM

N[C@@H](CC(=O)N1CCC(N2CCOCC2)CC1)Cc1ccccc1F [Example 25]
IC50 [1]: 0.501 to 2 µM

N[C@@H](CC(=O)N1CCC(N(C2CC2)S(=O)(=O)c2ccc(Cl)cc2)CC1)Cc1ccccc1F [Example 36]
IC50 [1]: < 0.5 µM

N[C@@H](CC(=O)N1CCC(c2ccccc2)CC1)Cc1ccccc1F [Example 4]
IC50 [1]: < 0.5 µM

N[C@@H](CC(=O)N1CCC(c2nc3ccccc3[nH]2)CC1)Cc1ccccc1F [Example 32]
IC50 [1]: < 0.5 µM

N[C@@H](CC(=O)N1CCC(c2nnc(-c3ccc(F)cc3)o2)CC1)Cc1ccccc1F [Example 28]
IC50 [1]: < 0.5 µM

N[C@@H](CC(=O)N1CCC(Cc2ccccc2)CC1)Cc1ccccc1F [Example 1]
IC50 [1]: 0.501 to 2 µM

N#CC1(c2ccccc2)CCN(C(=O)C[C@H](N)Cc2ccccc2F)CC1 [Example 5]
IC50: < 0.5 µM

N[C@@H](CC(=O)N1CC[C@H](NC(=O)C2CC2)C1)Cc1ccccc1F [Example 52, N-((S)-1-((R)-3-amino-4-(2-fluorophenyl)butanoyl)pyrrolidin-3-yl)cyclopropane-carboxamide trifluoroacetic acid salt]
IC50 [1]: < 0.5 µM

N[C@@H](CC(=O)N1CCC(c2ccccc2C(F)(F)F)CC1)Cc1ccccc1F [Example 38]
IC50 [1]: < 0.5 µM

Cc1ccc(S(=O)(=O)C2CCN(C(=O)C[C@H](N)Cc3ccccc3F)CC2)cc1 [Example 39]
IC50 [1]: < 0.5 µM

N[C@@H](CC(=O)N1CCCC(Oc2ccccc2)C1)Cc1ccccc1F (some centres unmarked) [Example 34]
IC50 [1]: < 0.5 µM

COc1cc(OC)nc(C2CCN(C(=O)C[C@H](N)Cc3ccccc3F)CC2)n1 [Example 29]
IC50 [1]: < 0.5 µM

N[C@@H](CC(=O)N1CCC(c2ccc(Cl)cc2)CC1)Cc1ccccc1F [Example 35]
IC50 [1]: 0.501 to 2 µM

N[C@@H](CC(=O)N1CCCC1Cc1cccnc1)Cc1ccccc1F (some centres unmarked) [Example 13]
IC50 [1]: < 0.5 µM

COc1ccccc1C1CCN(C(=O)C[C@H](N)Cc2ccccc2F)CC1 [Example 9]
IC50 [1]: < 0.5 µM

N[C@@H](CC(=O)N1CCC(N(C2CC2)S(=O)(=O)c2ccccc2)CC1)Cc1ccccc1F [Example 3]
IC50 [1]: < 0.5 µM

N[C@@H](CC(=O)N1CCC(Nc2cccc(S(=O)(=O)C(F)(F)F)c2)CC1)Cc1ccccc1F [Example 31]
IC50 [1]: < 0.5 µM

COc1ccc(C2CCN(C(=O)C[C@H](N)Cc3ccccc3F)CC2)cc1 [Example 7]
IC50 [1]: < 0.5 µM

N[C@@H](CC(=O)N1CCC(c2nnc(-c3cccc(C(F)(F)F)c3)o2)CC1)Cc1ccccc1F [Example 41]
IC50 [1]: 0.501 to 2 µM
